Reference: ChEMBL document CHEMBL5291721, “A preclinical secondary pharmacology resource illuminates target-adverse drug reaction associations of marketed drugs” (Nat Commun, 2023)

Key:
Motilin receptor = Motilin receptor (Homo sapiens, UniProt O43193)
Adenosine receptor A3 = target: T1, Adenosine receptor A3 (Homo sapiens, UniProt P0DMS8)
T1 sequence (P0DMS8 whole entry): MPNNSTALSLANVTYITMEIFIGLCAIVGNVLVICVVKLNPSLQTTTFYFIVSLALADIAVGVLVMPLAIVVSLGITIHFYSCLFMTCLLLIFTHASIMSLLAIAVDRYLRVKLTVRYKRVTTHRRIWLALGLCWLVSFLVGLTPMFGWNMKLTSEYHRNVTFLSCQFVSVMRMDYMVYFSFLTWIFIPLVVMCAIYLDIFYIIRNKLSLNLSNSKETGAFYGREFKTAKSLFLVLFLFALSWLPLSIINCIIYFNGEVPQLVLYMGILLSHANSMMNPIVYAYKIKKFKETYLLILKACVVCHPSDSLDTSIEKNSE

[1] = target: Beta-2 adrenergic receptor (Homo sapiens, UniProt P07550)
Sequence of Beta-2 adrenergic receptor (P07550 whole entry): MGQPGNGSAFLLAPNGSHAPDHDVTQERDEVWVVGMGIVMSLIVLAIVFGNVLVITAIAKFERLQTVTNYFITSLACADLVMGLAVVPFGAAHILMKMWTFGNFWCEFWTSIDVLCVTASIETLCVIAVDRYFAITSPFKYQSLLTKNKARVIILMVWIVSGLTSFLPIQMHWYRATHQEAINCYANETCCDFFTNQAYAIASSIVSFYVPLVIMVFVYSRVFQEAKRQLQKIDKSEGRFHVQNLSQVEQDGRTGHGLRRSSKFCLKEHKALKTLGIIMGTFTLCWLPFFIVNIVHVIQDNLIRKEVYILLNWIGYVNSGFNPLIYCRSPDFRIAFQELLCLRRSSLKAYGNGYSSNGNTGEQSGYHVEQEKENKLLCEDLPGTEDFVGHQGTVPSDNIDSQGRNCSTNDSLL

[2] = target: Kappa-type opioid receptor (Homo sapiens, UniProt P41145)
Sequence of Kappa-type opioid receptor (P41145 whole entry): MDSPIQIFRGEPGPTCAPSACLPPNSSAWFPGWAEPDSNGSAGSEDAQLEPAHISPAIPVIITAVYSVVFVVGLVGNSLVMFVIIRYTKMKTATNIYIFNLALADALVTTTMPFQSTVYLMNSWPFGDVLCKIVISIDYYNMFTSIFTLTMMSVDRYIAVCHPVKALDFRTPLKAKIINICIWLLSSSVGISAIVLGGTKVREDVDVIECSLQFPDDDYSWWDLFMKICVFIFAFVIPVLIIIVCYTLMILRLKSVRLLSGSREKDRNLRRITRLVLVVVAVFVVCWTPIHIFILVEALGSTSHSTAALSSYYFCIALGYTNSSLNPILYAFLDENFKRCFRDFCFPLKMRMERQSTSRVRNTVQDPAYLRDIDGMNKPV

[3] = target: Voltage-dependent L-type calcium channel subunit alpha-1C (Rattus norvegicus, UniProt P22002); type: functional
Sequence of Voltage-dependent L-type calcium channel subunit alpha-1C (P22002 whole entry): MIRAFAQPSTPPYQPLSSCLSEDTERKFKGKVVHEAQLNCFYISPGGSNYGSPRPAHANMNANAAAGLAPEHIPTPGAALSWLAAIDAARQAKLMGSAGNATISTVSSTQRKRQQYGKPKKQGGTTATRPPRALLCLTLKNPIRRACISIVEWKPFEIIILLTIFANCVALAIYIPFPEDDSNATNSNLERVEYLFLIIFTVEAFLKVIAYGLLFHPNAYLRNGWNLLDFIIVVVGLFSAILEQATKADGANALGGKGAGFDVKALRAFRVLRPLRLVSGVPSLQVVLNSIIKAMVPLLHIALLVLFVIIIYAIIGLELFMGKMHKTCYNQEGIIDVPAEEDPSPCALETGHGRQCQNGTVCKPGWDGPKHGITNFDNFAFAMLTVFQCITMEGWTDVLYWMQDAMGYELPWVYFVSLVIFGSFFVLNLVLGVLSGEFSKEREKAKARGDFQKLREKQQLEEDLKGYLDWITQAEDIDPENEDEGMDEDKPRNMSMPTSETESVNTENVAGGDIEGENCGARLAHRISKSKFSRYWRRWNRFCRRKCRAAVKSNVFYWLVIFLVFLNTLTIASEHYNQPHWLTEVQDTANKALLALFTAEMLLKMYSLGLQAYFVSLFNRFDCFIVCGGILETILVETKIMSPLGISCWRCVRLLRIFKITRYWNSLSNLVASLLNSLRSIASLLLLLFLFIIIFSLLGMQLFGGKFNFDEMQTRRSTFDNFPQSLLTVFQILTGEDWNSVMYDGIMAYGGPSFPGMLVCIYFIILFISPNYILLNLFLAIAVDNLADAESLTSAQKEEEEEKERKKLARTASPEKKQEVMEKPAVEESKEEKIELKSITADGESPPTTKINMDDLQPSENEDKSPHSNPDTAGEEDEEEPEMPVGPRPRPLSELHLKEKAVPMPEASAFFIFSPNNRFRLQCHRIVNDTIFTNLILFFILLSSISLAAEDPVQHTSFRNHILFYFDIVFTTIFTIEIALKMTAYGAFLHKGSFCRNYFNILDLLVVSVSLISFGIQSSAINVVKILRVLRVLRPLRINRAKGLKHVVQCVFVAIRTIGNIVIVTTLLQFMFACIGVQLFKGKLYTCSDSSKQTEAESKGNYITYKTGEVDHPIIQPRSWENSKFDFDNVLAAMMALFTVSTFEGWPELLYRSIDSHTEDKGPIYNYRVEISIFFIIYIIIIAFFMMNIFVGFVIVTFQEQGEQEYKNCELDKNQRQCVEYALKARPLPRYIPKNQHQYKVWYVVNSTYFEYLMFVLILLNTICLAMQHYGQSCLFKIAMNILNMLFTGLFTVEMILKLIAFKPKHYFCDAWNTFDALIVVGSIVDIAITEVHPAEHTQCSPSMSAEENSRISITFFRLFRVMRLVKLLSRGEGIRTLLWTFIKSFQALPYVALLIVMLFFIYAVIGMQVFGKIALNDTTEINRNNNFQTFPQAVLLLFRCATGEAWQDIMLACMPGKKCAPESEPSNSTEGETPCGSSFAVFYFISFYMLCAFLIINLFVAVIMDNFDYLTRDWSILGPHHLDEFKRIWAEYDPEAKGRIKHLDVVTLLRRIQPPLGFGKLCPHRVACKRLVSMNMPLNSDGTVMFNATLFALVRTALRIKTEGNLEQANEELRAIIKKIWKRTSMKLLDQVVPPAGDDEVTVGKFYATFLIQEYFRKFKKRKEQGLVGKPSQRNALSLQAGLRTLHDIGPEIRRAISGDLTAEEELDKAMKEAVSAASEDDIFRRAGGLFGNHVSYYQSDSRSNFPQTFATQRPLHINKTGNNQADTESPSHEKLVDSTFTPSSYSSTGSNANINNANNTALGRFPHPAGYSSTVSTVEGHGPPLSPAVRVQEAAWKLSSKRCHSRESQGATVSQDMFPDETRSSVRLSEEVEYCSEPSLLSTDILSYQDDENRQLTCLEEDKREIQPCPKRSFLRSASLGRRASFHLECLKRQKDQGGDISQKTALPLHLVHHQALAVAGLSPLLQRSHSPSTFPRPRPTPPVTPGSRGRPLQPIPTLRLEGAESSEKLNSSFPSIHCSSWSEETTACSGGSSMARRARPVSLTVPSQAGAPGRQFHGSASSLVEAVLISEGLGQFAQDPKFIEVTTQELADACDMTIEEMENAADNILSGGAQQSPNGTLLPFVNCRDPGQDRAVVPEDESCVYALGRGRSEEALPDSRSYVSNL

[4] = target: Neuronal acetylcholine receptor subunit alpha-4 (Homo sapiens, UniProt P43681)
Sequence of Neuronal acetylcholine receptor subunit alpha-4 (P43681 whole entry): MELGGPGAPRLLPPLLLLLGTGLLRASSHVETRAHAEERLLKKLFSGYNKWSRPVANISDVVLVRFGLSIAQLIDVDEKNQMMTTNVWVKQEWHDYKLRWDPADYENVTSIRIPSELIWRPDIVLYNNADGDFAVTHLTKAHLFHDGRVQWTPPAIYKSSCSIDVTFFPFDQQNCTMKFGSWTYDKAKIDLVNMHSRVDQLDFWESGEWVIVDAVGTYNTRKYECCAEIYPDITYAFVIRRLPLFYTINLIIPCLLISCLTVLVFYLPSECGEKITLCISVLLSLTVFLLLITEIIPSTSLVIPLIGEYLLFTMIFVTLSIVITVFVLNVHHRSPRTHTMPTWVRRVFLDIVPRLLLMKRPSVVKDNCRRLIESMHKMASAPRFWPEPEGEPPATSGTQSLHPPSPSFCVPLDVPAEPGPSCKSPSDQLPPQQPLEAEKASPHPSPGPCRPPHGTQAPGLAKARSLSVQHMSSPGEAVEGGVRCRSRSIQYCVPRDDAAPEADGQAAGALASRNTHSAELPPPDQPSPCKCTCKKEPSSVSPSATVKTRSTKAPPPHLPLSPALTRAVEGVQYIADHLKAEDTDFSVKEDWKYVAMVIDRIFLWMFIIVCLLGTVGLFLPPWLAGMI

[5] = target: T2, Gastrin/cholecystokinin type B receptor (Homo sapiens, UniProt P32239)
T2 sequence (P32239 whole entry): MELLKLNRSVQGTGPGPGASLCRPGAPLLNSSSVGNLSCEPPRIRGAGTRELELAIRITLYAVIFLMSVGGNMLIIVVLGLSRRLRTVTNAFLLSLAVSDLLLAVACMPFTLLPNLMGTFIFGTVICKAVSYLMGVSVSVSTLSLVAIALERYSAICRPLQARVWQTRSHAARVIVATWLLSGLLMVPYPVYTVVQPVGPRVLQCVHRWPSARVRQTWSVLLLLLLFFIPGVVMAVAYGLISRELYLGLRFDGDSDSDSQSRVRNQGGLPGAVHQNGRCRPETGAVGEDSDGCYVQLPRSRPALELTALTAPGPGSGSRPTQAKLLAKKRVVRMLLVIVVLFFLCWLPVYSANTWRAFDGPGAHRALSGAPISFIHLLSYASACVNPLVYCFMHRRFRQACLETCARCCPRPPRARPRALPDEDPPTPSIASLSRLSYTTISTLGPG

Estrogen receptor = target: T3, Estrogen receptor (Homo sapiens, UniProt P03372)
T3 sequence (P03372 whole entry): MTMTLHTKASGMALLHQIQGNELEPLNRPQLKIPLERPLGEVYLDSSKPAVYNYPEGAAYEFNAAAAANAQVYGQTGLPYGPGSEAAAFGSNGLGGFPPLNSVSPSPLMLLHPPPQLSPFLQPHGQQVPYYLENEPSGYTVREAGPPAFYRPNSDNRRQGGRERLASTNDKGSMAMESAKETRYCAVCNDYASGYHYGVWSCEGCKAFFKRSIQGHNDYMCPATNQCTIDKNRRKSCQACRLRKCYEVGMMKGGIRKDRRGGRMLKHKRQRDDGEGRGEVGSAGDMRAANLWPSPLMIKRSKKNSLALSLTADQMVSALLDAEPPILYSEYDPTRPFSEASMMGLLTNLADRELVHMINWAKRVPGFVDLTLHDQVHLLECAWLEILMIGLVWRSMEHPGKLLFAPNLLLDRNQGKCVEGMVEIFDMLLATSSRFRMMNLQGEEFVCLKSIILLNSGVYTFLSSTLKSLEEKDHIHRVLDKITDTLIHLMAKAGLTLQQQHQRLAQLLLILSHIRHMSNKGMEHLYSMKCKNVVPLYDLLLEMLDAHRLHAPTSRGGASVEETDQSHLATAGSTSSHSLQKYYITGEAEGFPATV

[6] = target: T4, Muscarinic acetylcholine receptor M2 (Homo sapiens, UniProt P08172); type: functional, cell-based
T4 sequence (P08172 whole entry): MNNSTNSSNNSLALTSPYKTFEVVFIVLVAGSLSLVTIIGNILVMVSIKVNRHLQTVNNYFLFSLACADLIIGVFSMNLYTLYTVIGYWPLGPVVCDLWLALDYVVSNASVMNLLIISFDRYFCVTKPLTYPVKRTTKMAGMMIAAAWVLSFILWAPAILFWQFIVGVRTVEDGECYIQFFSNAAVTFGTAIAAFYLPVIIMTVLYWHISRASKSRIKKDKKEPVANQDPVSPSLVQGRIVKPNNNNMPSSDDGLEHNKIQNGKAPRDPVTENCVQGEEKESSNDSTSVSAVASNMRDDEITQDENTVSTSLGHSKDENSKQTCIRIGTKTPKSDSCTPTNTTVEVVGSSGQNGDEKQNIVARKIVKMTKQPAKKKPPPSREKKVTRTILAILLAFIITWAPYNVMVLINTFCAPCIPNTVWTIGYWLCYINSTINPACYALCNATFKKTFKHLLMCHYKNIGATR

[7] = target: Sodium-dependent noradrenaline transporter (Homo sapiens, UniProt P23975)
B2 bradykinin receptor = target: T5, B2 bradykinin receptor (Homo sapiens, UniProt P30411)
T5 sequence (P30411 whole entry): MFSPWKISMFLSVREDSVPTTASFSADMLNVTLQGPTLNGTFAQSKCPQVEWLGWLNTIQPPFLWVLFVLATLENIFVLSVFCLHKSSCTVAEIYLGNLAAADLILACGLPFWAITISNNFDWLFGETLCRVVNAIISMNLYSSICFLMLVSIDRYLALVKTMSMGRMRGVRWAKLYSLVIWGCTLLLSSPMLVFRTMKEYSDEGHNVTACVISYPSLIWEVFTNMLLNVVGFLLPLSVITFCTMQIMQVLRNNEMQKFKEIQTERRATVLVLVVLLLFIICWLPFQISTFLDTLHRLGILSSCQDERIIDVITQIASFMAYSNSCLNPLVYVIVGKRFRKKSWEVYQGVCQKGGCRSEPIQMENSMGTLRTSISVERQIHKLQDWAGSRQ

Histamine H1 receptor = Histamine H1 receptor (Homo sapiens, UniProt P35367)
Sequence of Histamine H1 receptor (P35367 whole entry): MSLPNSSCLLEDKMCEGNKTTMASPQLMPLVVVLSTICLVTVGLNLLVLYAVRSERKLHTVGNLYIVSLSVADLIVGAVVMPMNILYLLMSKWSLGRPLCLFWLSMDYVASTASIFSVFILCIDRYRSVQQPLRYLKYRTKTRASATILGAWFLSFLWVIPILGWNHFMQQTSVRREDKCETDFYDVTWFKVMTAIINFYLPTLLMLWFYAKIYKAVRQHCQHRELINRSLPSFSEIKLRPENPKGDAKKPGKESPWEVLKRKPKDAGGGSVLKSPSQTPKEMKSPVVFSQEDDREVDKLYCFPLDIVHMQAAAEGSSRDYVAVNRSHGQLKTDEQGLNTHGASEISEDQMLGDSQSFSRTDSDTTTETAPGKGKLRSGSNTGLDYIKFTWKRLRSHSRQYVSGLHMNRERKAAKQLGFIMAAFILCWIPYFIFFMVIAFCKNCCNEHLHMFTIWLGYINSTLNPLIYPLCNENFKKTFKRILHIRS
Also: assay procedure not described here.

Sequence of Motilin receptor (O43193 whole entry): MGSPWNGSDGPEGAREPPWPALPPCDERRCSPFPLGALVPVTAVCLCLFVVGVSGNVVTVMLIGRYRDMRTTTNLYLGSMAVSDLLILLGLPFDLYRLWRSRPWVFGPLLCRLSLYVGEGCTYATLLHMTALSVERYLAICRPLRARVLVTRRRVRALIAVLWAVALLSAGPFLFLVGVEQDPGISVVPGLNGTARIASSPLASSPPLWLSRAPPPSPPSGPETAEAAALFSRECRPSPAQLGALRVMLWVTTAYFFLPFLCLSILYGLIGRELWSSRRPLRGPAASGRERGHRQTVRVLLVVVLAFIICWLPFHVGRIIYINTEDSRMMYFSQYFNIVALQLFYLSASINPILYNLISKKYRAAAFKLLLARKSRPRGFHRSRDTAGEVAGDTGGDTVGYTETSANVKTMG

| SMILES | AC50 (Motilin receptor) [µM] | AC50 (Adenosine receptor A3) [µM] | AC50 [1] [µM] | AC50 [2] [µM] | AC50 [3] [µM] | AC50 [4] [µM] | AC50 [5] [µM] | AC50 (Estrogen receptor) [µM] | AC50 [6] [µM] | AC50 [7] [µM] | AC50 (B2 bradykinin receptor) [µM] | AC50 (Histamine H1 receptor) [µM] |
| --- | --- | --- | --- | --- | --- | --- | --- | --- | --- | --- | --- | --- |
| COc1ccc(/C=C/C(=O)Nc2ccccc2C(=O)O)cc1OC | > 30 | > 30 | > 30 | > 30 | > 30 | > 30 | > 30 | > 30 | > 30 | > 30 | > 30 | – |
| CS(=O)(=O)OCCCCOS(C)(=O)=O [BUSULFAN] | > 30 | > 30 | – | > 30 | – | > 30 | > 30 | > 30 | > 30 | > 30 | > 30 | – |
| CCCCC1(CC)C(=O)NC(=O)NC1=O [BUTETHAL] | > 30 | > 30 | – | > 30 | – | > 30 | > 30 | > 30 | > 30 | > 30 | > 30 | > 30 |
| C=CC1=C(C(=O)O)N2C(=O)[C@@H](NC(=O)/C(=N\OCC(=O)O)c3csc(N)n3)[C@H]2SC1 [CEFIXIME] | > 30 | > 30 | – | – | – | > 30 | > 30 | > 30 | > 30 | > 30 | > 30 | > 30 |
| CO[C@@]1(NC(=O)Cc2cccs2)C(=O)N2C(C(=O)O)=C(COC(N)=O)CS[C@@H]21 [CEFOXITIN] | > 30 | > 30 | – | > 30 | – | > 30 | > 30 | > 30 | > 30 | > 30 | > 30 | > 30 |
| CCN(CC)CCOC(=O)c1ccc(N)cc1Cl [CHLOROPROCAINE] | > 30 | > 30 | – | > 30 | – | 25 | > 30 | > 30 | 29 | > 30 | > 30 | > 30 |
| CC(=O)OCC(CCn1cnc2cnc(N)nc21)COC(C)=O [FAMCICLOVIR] | > 10 | > 30 | > 10 | > 10 | > 10 | > 10 | > 30 | > 30 | > 10 | > 10 | > 30 | – |
| O=C(O)c1ccccc1OP(=O)(O)O [FOSFOSAL] | > 30 | > 30 | – | > 30 | – | > 30 | > 30 | > 30 | > 30 | > 30 | > 30 | > 30 |
| Nc1ccn([C@@H]2O[C@H](CO)[C@@H](O)C2(F)F)c(=O)n1 [GEMCITABINE] | > 10 | > 30 | > 30 | > 10 | > 10 | > 10 | > 30 | > 30 | > 10 | > 30 | > 30 | – |
| COC1=C(OC)C(=O)C(CCCCCCCCCCO)=C(C)C1=O [IDEBENONE] | > 10 | > 30 | > 10 | > 10 | > 10 | > 10 | > 30 | > 30 | > 10 | > 10 | > 30 | – |
| O=C1Nc2ccc(Cl)cc2C(c2ccccc2)=NC1O (stereo unspecified) [OXAZEPAM] | > 10 | > 30 | > 10 | > 10 | > 10 | > 10 | > 30 | – | > 10 | > 10 | > 30 | > 10 |
| CCn1cc(C(=O)O)c(=O)c2cc(F)c(N3CCN(C)CC3)cc21 [PEFLOXACIN] | > 30 | > 30 | – | – | – | – | > 30 | > 30 | > 30 | > 30 | > 30 | – |
| CC[N+]1(C)CCCC(OC(=O)C(O)(c2ccccc2)c2ccccc2)C1 (stereo unspecified) [PIPENZOLATE] | > 30 | > 30 | > 30 | > 30 | > 30 | > 30 | > 30 | – | 0.023 | > 30 | > 30 | 27 |
| CCCNC(C)C(=O)Nc1ccccc1C (stereo unspecified) [PRILOCAINE] | > 30 | > 30 | – | > 30 | – | > 30 | > 30 | > 30 | > 30 | > 30 | > 30 | – |
| CCN(CC)CC(=O)Oc1ccc(NC(C)=O)cc1 [PROPACETAMOL] | > 30 | > 30 | > 30 | 18 | > 30 | > 30 | > 30 | – | > 30 | > 30 | > 30 | > 30 |
| [H]/N=C(/N)N[C@H]1[C@H](O)[C@@H](O)[C@H](O[C@@H]2O[C@@H](C)[C@](O)(C=O)[C@H]2O[C@@H]2O[C@@H](CO)[C@H](O)[C@@H](O)[C@@H]2NC)[C@@H](N/C(N)=N\[H])[C@@H]1O [STREPTOMYCIN] | > 30 | > 30 | > 30 | > 30 | > 30 | > 30 | > 30 | > 30 | > 30 | > 30 | > 30 | – |
| Cc1cccc(N(C)C(=S)Oc2ccc3ccccc3c2)c1 [TOLNAFTATE] | > 10 | > 10 | > 10 | > 10 | 25 | > 10 | – | > 30 | > 10 | > 10 | > 10 | – |
| COc1cc2c(Nc3ccc(Br)cc3F)ncnc2cc1OCC1CCN(C)CC1 [VANDETANIB] | > 30 | 23 | – | > 30 | – | 9.6 | > 10 | > 30 | 21 | > 30 | > 10 | – |
